Measurements taken from article PMC12599248, “Selectivity profiles and substrate recognition of Rab-phosphorylating kinases” (Biochemical Journal, 2025).

Assays:
Rab10 = target: T1, Rab10 (Homo sapiens, UniProt P61026); test: dynamic scanning fluorimetry (SYPRO Orange); assay type: binding; details: 1 mM nucleotide, 4 uM protein, 2.5 mM MgCl2, pH 7.4
T1 construct: near full-length without C-terminal prenylation region; pET-28a, His6 tag cut by TEV; E. coli BL21(DE3)
T1 sequence (P61026 1-181 limits assumed): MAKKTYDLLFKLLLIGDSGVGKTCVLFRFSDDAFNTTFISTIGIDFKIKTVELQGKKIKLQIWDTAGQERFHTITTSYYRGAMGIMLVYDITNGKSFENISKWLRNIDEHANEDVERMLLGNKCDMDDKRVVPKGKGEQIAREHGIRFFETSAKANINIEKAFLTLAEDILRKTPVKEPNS

Rab8A = target: T2, Rab8A (Homo sapiens, UniProt P61006); test: dynamic scanning fluorimetry (SYPRO Orange); assay type: binding; details: 1 mM nucleotide, 4 uM protein, 2.5 mM MgCl2, pH 7.4; shift relative to apo
T2 construct: near full-length without C-terminal prenylation region; pET-28a, His6 tag cut by TEV; E. coli BL21(DE3)
T2 sequence (P61006 1-203 limits assumed): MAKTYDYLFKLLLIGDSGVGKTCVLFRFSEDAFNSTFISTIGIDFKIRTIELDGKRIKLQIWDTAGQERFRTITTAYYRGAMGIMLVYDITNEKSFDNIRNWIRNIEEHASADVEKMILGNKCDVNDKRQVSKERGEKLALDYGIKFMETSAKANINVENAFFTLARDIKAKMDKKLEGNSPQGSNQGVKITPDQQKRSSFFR

Rab7A = target: T3, Rab7A (Homo sapiens, UniProt P51149); test: dynamic scanning fluorimetry (SYPRO Orange); assay type: binding; details: 1 mM nucleotide, 4 uM protein, 2.5 mM MgCl2, pH 7.4
T3 construct: near full-length without C-terminal prenylation region; pET-28a, His6 tag cut by TEV; E. coli BL21(DE3)

Rab9A = target: T4, Rab9A (Homo sapiens, UniProt P51151); test: dynamic scanning fluorimetry (SYPRO Orange); assay type: binding; details: 1 mM nucleotide, 4 uM protein, 2.5 mM MgCl2, pH 7.4
T4 construct: near full-length without C-terminal prenylation region; pET-28a, His6 tag cut by TEV; E. coli BL21(DE3)
T4 sequence (P51151 1-180 limits assumed): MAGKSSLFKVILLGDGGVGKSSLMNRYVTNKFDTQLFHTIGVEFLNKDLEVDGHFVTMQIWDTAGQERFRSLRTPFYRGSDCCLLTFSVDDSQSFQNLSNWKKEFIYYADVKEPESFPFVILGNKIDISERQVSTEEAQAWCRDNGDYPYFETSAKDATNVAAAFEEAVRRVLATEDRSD

Rab15 = target: T5, Rab15 (Homo sapiens, UniProt P59190); test: dynamic scanning fluorimetry (SYPRO Orange); assay type: binding; details: 1 mM nucleotide, 4 uM protein, 2.5 mM MgCl2, pH 7.4
T5 construct: near full-length without C-terminal prenylation region; pET-28a, His6 tag cut by TEV; E. coli BL21(DE3)
T5 sequence (P59190 1-208 limits assumed): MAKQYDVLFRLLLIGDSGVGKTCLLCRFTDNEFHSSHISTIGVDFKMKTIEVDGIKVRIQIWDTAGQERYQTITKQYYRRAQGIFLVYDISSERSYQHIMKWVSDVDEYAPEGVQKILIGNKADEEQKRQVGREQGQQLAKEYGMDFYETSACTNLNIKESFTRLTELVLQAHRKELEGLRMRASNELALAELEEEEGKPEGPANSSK

Rab8B = target: T6, Rab8B (Homo sapiens, UniProt Q92930); test: dynamic scanning fluorimetry (SYPRO Orange); assay type: binding; details: 1 mM nucleotide, 4 uM protein, 2.5 mM MgCl2, pH 7.4
T6 construct: near full-length without C-terminal prenylation region; pET-28a, His6 tag cut by TEV; E. coli BL21(DE3)
T6 sequence (Q92930 1-203 limits assumed): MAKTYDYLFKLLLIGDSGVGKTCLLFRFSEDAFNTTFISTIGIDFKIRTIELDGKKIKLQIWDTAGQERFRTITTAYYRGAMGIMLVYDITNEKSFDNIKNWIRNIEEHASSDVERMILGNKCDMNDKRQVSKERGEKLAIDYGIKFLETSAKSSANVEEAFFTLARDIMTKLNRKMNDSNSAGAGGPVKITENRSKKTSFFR

Rab1A = target: T7, Rab1A (Homo sapiens, UniProt P62820); test: dynamic scanning fluorimetry (SYPRO Orange); assay type: binding; details: 1 mM nucleotide, 4 uM protein, 2.5 mM MgCl2, pH 7.4
T7 construct: near full-length without C-terminal prenylation region; pET-28a, His6 tag cut by TEV; E. coli BL21(DE3)

Rab13 = target: T8, Rab13 (Homo sapiens, UniProt P51153); test: dynamic scanning fluorimetry (SYPRO Orange); assay type: binding; details: 1 mM nucleotide, 4 uM protein, 2.5 mM MgCl2, pH 7.4
T8 construct: near full-length without C-terminal prenylation region; pET-28a, His6 tag cut by TEV; E. coli BL21(DE3)
T8 sequence (P51153 1-180 limits assumed): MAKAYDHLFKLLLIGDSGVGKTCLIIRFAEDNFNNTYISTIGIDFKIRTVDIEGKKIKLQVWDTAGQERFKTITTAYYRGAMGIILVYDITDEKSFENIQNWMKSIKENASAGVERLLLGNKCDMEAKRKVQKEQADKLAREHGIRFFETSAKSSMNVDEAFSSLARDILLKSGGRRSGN

Rab43 = target: T9, Rab43 (Homo sapiens, UniProt Q86YS6); test: dynamic scanning fluorimetry (SYPRO Orange); assay type: binding; details: 1 mM nucleotide, 4 uM protein, 2.5 mM MgCl2, pH 7.4
T9 construct: near full-length without C-terminal prenylation region; pET-28a, His6 tag cut by TEV; E. coli BL21(DE3)
T9 sequence (Q86YS6 1-185 limits assumed): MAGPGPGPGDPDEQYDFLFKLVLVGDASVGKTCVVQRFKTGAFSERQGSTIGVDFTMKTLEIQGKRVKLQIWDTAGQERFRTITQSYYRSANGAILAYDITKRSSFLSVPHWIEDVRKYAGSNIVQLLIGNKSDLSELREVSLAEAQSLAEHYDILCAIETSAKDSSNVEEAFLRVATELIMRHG

Rab29 = target: T10, Rab29 (Homo sapiens, UniProt O14966); test: dynamic scanning fluorimetry (SYPRO Orange); assay type: binding; details: 1 mM nucleotide, 4 uM protein, 2.5 mM MgCl2, pH 7.4
T10 construct: near full-length without C-terminal prenylation region; pET-28a, His6 tag cut by TEV; E. coli BL21(DE3)
T10 sequence (O14966 1-195 limits assumed): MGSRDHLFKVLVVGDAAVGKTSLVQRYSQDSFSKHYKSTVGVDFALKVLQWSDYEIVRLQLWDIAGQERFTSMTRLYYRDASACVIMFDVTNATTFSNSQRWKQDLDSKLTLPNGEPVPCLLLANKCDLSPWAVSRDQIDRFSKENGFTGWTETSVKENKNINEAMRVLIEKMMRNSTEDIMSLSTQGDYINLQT

Rab3A = target: T11, Rab3A (Homo sapiens, UniProt P20336); test: dynamic scanning fluorimetry (SYPRO Orange); assay type: binding; details: 1 mM nucleotide, 4 uM protein, 2.5 mM MgCl2, pH 7.4
T11 construct: near full-length without C-terminal prenylation region; pET-28a, His6 tag cut by TEV; E. coli BL21(DE3)
T11 sequence (P20336 1-200 limits assumed): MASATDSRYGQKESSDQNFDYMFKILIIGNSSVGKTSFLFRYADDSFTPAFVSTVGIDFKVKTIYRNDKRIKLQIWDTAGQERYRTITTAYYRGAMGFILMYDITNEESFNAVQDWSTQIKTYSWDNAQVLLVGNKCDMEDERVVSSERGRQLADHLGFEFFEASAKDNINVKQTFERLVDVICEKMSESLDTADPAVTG

Rab2A = target: T12, Rab2A (Homo sapiens, UniProt P61019); test: dynamic scanning fluorimetry (SYPRO Orange); assay type: binding; details: 1 mM nucleotide, 4 uM protein, 2.5 mM MgCl2, pH 7.4
T12 construct: near full-length without C-terminal prenylation region; pET-28a, His6 tag cut by TEV; E. coli BL21(DE3)

Rab12 = target: T13, Rab12 (Homo sapiens, UniProt Q6IQ22); test: dynamic scanning fluorimetry (SYPRO Orange); assay type: binding; details: 1 mM nucleotide, 4 uM protein, 2.5 mM MgCl2, pH 7.4
T13 construct: near full-length without C-terminal prenylation region; pET-28a, His6 tag cut by TEV; E. coli BL21(DE3)
T13 sequence (Q6IQ22 97-318 limits assumed): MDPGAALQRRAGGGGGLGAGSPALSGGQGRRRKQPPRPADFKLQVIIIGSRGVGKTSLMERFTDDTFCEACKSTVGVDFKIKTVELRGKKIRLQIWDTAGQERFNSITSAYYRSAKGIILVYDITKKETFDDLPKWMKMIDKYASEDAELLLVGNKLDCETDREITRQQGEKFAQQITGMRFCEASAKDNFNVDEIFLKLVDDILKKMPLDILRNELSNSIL

[1] = target: LRRK2 (Leucine-rich repeat kinase 2) (UniProt Q5S007)
Sequence of LRRK2 (Leucine-rich repeat kinase 2) (Q5S007 whole entry): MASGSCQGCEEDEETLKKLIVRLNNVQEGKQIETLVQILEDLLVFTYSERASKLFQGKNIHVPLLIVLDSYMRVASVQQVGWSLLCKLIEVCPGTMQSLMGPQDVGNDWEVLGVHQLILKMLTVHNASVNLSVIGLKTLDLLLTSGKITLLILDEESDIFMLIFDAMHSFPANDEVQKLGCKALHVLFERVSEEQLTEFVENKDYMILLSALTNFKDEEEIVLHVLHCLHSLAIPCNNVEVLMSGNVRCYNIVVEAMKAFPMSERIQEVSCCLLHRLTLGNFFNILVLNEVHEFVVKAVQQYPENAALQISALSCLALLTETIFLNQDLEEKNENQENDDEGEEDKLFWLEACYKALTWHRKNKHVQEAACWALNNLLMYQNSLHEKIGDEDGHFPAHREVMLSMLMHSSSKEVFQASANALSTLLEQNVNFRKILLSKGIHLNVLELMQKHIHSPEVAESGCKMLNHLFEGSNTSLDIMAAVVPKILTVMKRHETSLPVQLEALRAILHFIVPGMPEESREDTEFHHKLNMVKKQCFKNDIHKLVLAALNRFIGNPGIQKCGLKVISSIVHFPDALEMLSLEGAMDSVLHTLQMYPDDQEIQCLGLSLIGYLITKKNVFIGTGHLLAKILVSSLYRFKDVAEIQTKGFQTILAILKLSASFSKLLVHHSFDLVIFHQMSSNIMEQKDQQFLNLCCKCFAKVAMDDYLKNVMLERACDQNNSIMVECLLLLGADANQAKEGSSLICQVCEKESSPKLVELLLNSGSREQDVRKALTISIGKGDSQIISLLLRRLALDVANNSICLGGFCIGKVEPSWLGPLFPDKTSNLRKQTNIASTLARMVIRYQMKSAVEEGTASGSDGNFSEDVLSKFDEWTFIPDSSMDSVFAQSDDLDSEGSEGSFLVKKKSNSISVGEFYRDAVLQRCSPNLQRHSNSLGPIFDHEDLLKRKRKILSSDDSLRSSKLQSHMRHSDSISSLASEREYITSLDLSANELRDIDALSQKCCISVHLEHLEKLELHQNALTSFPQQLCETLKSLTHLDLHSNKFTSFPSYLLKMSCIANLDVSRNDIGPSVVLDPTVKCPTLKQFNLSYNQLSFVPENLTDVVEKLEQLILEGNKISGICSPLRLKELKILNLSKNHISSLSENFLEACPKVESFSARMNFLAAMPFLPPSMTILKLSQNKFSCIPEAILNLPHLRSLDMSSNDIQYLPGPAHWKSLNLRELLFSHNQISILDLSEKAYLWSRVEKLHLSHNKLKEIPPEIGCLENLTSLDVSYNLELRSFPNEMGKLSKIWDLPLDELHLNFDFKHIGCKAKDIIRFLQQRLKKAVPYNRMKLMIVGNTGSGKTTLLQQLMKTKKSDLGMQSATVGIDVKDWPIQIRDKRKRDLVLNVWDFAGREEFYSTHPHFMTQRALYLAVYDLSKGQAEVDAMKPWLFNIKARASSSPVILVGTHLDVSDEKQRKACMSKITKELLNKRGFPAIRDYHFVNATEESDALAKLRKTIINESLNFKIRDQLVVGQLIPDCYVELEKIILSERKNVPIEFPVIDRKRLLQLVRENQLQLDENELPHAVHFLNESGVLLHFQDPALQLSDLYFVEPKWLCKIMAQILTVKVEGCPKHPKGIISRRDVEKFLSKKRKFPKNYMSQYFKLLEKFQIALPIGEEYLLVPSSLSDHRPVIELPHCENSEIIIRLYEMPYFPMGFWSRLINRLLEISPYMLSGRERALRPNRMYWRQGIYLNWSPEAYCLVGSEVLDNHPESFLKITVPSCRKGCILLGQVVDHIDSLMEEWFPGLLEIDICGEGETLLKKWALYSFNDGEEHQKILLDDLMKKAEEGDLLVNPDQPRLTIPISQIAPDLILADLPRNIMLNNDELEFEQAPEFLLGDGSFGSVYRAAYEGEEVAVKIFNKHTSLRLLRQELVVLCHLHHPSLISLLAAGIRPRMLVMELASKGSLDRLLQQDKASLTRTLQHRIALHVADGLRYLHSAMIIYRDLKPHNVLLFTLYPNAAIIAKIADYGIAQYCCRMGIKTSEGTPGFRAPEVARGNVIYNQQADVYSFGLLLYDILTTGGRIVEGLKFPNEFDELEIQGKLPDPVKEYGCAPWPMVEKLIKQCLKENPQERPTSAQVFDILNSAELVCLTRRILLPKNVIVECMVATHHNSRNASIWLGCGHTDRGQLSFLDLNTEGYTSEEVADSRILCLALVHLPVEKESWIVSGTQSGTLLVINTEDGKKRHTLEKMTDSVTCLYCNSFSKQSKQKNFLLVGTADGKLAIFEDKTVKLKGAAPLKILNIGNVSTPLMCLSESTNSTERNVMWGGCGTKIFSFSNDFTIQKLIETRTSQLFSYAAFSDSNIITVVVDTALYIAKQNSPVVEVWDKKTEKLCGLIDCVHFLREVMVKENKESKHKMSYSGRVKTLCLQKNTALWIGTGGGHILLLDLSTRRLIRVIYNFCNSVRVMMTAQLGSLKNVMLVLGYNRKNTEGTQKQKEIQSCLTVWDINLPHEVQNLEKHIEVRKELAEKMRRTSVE

T3 sequence (P51149 1-185 limits assumed): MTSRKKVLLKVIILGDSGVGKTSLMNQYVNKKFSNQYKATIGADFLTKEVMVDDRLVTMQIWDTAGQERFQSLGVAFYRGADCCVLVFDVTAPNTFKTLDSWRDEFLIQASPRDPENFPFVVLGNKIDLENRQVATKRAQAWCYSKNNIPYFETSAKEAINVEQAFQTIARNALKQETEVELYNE
T12 sequence (P61019 1-210 limits assumed): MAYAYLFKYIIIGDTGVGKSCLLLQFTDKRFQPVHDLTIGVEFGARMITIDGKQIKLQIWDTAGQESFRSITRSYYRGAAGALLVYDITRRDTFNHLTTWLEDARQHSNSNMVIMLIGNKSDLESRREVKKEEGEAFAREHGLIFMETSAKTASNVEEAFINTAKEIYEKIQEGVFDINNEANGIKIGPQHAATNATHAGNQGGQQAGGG
T7 sequence (P62820 1-203 limits assumed): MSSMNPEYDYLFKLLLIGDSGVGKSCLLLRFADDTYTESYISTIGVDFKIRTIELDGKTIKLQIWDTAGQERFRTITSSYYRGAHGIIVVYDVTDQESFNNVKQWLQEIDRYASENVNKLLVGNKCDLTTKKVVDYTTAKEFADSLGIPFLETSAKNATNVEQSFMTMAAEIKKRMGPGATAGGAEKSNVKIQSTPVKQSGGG

dTm (Rab8A) | Compound | Tm (Rab10) | Tm (Rab7A) | Tm (Rab9A) | Tm (Rab13) | other results
15 K | Nc1nc2c(ncn2[C@@H]2O[C@H](COP(=O)(O)OP(=O)(O)O)[C@@H](O)[C@H]2O)c(=O)[nH]1 [GDP] | All Rabs from the panel bound to and were stabilized by guanine nucleotides. | All Rabs from the panel bound to and were stabilized by guanine nucleotides. | for several Rabs including Rab9A and Rab13, the Rab:GDP and Rab:GTP complexes displayed equal stability | for several Rabs including Rab9A and Rab13, the Rab:GDP and Rab:GTP complexes displayed equal stability | Tm (Rab15): All Rabs from the panel bound to and were stabilized by guanine nucleotides.; Tm (Rab8B): All Rabs from the panel bound to and were stabilized by guanine nucleotides.; Tm (Rab1A): All Rabs from the panel bound to and were stabilized by guanine nucleotides.; Tm (Rab43): All Rabs from the panel bound to and were stabilized by guanine nucleotides.; Tm (Rab29): All Rabs from the panel bound to and were stabilized by guanine nucleotides.; Tm (Rab3A): All Rabs from the panel bound to and were stabilized by guanine nucleotides.; Tm (Rab2A): All Rabs from the panel bound to and were stabilized by guanine nucleotides.; Tm (Rab12): All Rabs from the panel bound to and were stabilized by guanine nucleotides.
 | Rab8A E108R (from UniProt P61006 1-207) (natural protein) |  |  |  |  | T72 phosphograde of the Rab8A:GDP variant after phosphorylation by LRRK2, relative to wildtype Rab8A (ESI-TOF MS kinase activity assay) (fold (increase)) [1]: 18
21 K | Nc1nc2c(ncn2[C@@H]2O[C@H](COP(=O)(O)OP(=O)(O)OP(=O)(O)O)[C@@H](O)[C@H]2O)c(=O)[nH]1 [GTP] | All Rabs from the panel bound to and were stabilized by guanine nucleotides. | All Rabs from the panel bound to and were stabilized by guanine nucleotides. | for several Rabs including Rab9A and Rab13, the Rab:GDP and Rab:GTP complexes displayed equal stability | for several Rabs including Rab9A and Rab13, the Rab:GDP and Rab:GTP complexes displayed equal stability | 
 | Rab8A R104A (from UniProt P61006 1-207) (natural protein) |  |  |  |  | T72 phosphograde of the Rab8A:GDP variant after phosphorylation by LRRK2, relative to wildtype Rab8A (ESI-TOF MS kinase activity assay) (fold (reduced)) [1]: 2
